Drawing on patent US20250387375A1, “SOFALCONE DERIVATIVES AND MEDICAL USE THEREOF” (KAOHSIUNG MEDICAL UNIVERSITY, priority 2024, published 2025), this text covers IC50 for 24 compounds.

Experiment [1] has as its system human platelet suspension (platelet aggregation caused by TxA2 agonist U46619). Description: Platelet aggregation reaction test, U46619-induced. The class given is cell-based. The protocol:
(§1) Blood samples were collected from healthy donors, and acid-citrate-dextrose (ACD) solution was used as an anticoagulant. The blood samples were centrifuged to obtain platelets, and residual plasma was removed by washing to prepare platelet suspension.
(§2) In the experimental method, a platelet aggregometer (Chrono-Log Co., Havertown, PA, USA) was used for tests. The compound to be tested was added to the platelet suspension and reacted for 3 minutes at 37° C. with stirring (1200 rpm). Then, platelet stimulator U46619 or collagen was added to initiate platelet aggregation, and the test time was 5 minutes. The principle of the platelet aggregation test was: when platelets were stimulated to induce aggregation reaction, the light transmission of the platelet suspension would increase; by calculating changes in light transmission of the platelet suspension before and after being stimulated, the percentage of platelet aggregation could be obtained.

The test system of experiment [2] is human platelet suspension (platelet aggregation caused by collagen). Put plainly: Platelet aggregation reaction test, collagen-induced. The settings on record: read-out: Collagen IC 50. It counts as cell-based. As to the method: as §1, §2

For `CCOC(=O)COc1ccccc1C(=O)C=Cc1cccs1` [Compound 66], the IC50 came out at 70.2 µM in experiment [1] and 2.86 µM in experiment [2].

For `CCOC(=O)COc1ccccc1C(=O)C=Cc1ccc(O)cc1` [Compound 47], the IC50 in experiment [1] came to 35.2 µM; in experiment [2] it was 16.4 µM.

On to `CCOC(=O)COc1ccccc1C(=O)C=Cc1ccc(N)cc1` [Compound 46], for which the IC50 in experiment [1] is 64 µM; in experiment [2], 5.08 µM.

`CC(C)=CCOc1ccc(C(=O)/C=C/c2ccccc2F)c(OCCCC(=O)O)c1` [Compound 13]: the values for the IC50 in experiment [1] and in experiment [2] were 0.51 µM and 0.65 µM, respectively.

In the case of `COC(=O)CCCOc1cc(OCC=C(C)C)ccc1C(=O)CCc1ccc(OCC=C(C)C)cc1` [Compound 73], the IC50 in experiment [1] stood at 10.7 µM; in experiment [2] it was 62.9 µM.

With `CCCCOc1ccc(C=CC(=O)c2ccc(OCCCC)cc2OCC(=O)O)cc1` [Compound 94], the values for the IC50 in experiment [1] and in experiment [2] were 40.7 µM and 63.2 µM, respectively.

For `O=C(O)COc1cc(O)ccc1C(=O)C=Cc1ccc(O)cc1` [Compound 71], the IC50 in experiment [1] was 65.4 µM; in experiment [2] it was over 100 µM.

As for `O=C(O)COc1cc(F)ccc1C(=O)C=Cc1ccccc1` [Compound 31], the figures for the IC50 in experiment [1] and in experiment [2] were 4.4 µM and 7.1 µM, respectively.

As for `CC(=O)Nc1ccc(/C=C/C(=O)c2ccc(OCC=C(C)C)cc2OCC(=O)O)cc1` [Compound 26], the IC50 in experiment [1] was 15.7 µM; in experiment [2], 40.8 µM.

As to `CC(C)=CCOc1ccc(CCC(=O)c2ccc(OCC=C(C)C)cc2OCCCC(=O)O)cc1` [Compound 75], the values for the IC50 in experiment [1] and in experiment [2] were 0.35 µM and 1.3 µM, respectively.

Regarding `O=C(O)CCCCCCCOc1ccccc1C(=O)C=Cc1ccccc1` [Compound 107], the IC50 in experiment [1] turned out to be 2.49 µM; in experiment [2] it was 8.35 µM.

On to `O=C(O)COc1cc(OCc2ccccc2)ccc1C(=O)C=Cc1ccc(OCc2ccccc2)cc1` [Compound 88], for which the IC50 in experiment [1] is 9.09 µM; in experiment [2] it was 45.1 µM.

`CC(C)=CCCC(C)=CCOc1ccc(C=CC(=O)c2ccc(OCC=C(C)CCC=C(C)C)cc2OCCCC(=O)O)cc1` [Compound 4]: the IC50 in experiment [1] amounted to 0.05 µM; in experiment [2], 0.06 µM.

As for `COC(=O)COc1cc(O)ccc1C(=O)C=Cc1ccc(O)cc1` [Compound 69], the IC50 came to 27.8 µM in experiment [1] and 3.42 µM in experiment [2].

Consider `CCCCCCCCCCOc1ccc(C=CC(=O)c2ccc(OCCCCCCCCCC)cc2OCC(=O)OC)cc1` [Compound 93], for which the IC50 in experiment [1] and in experiment [2] was over 50 µM throughout.

On to `CCOC(=O)CCCCCCOc1ccccc1C(=O)C=Cc1ccccc1` [Compound 104], for which the IC50 was found to be 13.5 µM in experiment [1] and 5.31 µM in experiment [2].

As for `CCOC(=O)COc1cc(O)ccc1C(=O)C=Cc1ccc(F)cc1` [Compound 43], the results for the IC50 in experiment [1] and in experiment [2] were 55.6 µM and 2.26 µM, respectively.

Regarding `CCCCCCOc1ccc(C=CC(=O)c2ccc(OCCCCCC)cc2OCC(=O)O)cc1` [Compound 95], the IC50 turned out to be 36.9 µM in experiment [1] and 76.3 µM in experiment [2].

Turning to `CC(C)=CCOc1ccc(C=CC(=O)c2ccc(OCC=C(C)C)cc2OCCCCC(=O)O)cc1` [Compound 37], the IC50 came out at 0.23 µM in experiment [1] and 1.58 µM in experiment [2].

In the case of `CC(C)=CCOc1ccc(C=CC(=O)c2ccc(OCC=C(C)C)cc2OCCCCCC(=O)O)cc1` [Compound 32], the IC50 in experiment [1] amounted to 5.85 µM; in experiment [2], 12.8 µM.

On to `CC(C)=CCOc1ccc(C(=O)/C=C/c2ccccc2)c(OCC(=O)O)c1` [Compound 22], for which the figures for the IC50 in experiment [1] and in experiment [2] were 43.2 µM and 12.8 µM, respectively.

Consider `O=C(O)CCCCCOc1ccccc1C(=O)C=Cc1ccccc1` [Compound 36], for which the IC50 worked out at 0.19 µM in experiment [1] and 0.13 µM in experiment [2].

For `O=C(O)CCCCCOc1ccccc1C(=O)C=Cc1cccnc1` [Compound 54], the IC50 in experiment [1] is 5.45 µM; in experiment [2] it was 22.1 µM.

In the case of `CC(C)=CCOc1ccc(C(=O)/C=C/c2ccc(F)cc2)c(OCCCC(=O)O)c1` [Compound 15], the IC50 in experiment [1] worked out at 0.05 µM; in experiment [2], 0.35 µM.
